These results are taken from patent US8835481B2, “1-benzyl-3-hydroxymethylindazole derivatives and use thereof in the treatment of diseases based on the expression of MCP-1, CX3CR1 and P40” (Aziende Chimiche Riunite Angelini Francesco A.C.R.A.F. …, priority 2008, dated 2014).

A word on the melting point: it is the temperature, or range, at which the solid turns liquid. A word on the inhibition: it is how much of the control response was suppressed.

The test system of data set [1] is MCP-1 expression by LPS-stimulated MonoMac6 cells. Description: Analysis of the gene expression of MCP-1 in a human monocyte line (real-time RT-PCR). Type of data set: cell-based. The settings on record: 1 h pre-incubation, LPS 100 ng/ml 4 h. The method, then:
The capacity of the compounds to inhibit the expression of MCP-1 by lipopolysaccharide (LPS)-stimulated MonoMac6 cells was evaluated. The cells were placed in 96-well plates at a concentration of 50 000 cells/well. The compounds were tested at the maximum soluble concentration given in Table 1 (in the range 30-300 μM) and incubated for 1 hour. The cells were then stimulated with LPS (100 ng/ml) for 4 hours.
(§1) The total RNA was extracted from the cell pellet using the RNeasy mini kit (Qiagen), reverse-transcribed with the TaqMan Reverse transcription reagents synthesis kit (Applied Biosystems) and the cDNA obtained was used for the real-time PCR reaction. The amplification was obtained in 96-well plates using the ABI Prism 7000 sequence detection system (Applied Biosystems), by applying the following temperature profile: 50° C. for 2 minutes, 95° C. for 10 minutes and 45 cycles at 95° C. for 15 seconds and 60° C. for 1 minute. For the amplification, a set of primers and probe specific for human MCP-1 was used (Applied Biosystems, RefSeq NM_002982.3). A set of primers and probe for β-actin was used in separate wells as an internal control of the samples for the purposes of normalization. Once the reaction had taken place, the fluorescence data were analysed using the ABI Prism 7000 SDS software, by calculating the threshold cycle (Ct) for each sample and subsequently performing a relative quantification via the ΔΔCt method.

The test system of data set [2] is MCP-1 protein production by LPS-stimulated MonoMac6 cells. Description: Measurement of the production of MCP-1 in a human monocyte line (ELISA). The format is cell-based. The settings on record: 1 h pre-incubation, LPS 100 ng/ml 20 h, MonoMac6 supernatant; for inhibition at 300 µM: MONO-MAC-6, compound 300 μM (maximum soluble concentration); for inhibition at 30 µM: MONO-MAC-6, compound 30 μM (maximum soluble concentration); for inhibition at 150 µM: MONO-MAC-6, compound 150 μM (maximum soluble concentration). As to the method: The capacity of the compounds to inhibit the expression of the protein MCP-1 by lipopolysaccharide (LPS)-stimulated MonoMac6 cells was evaluated. The cells were placed in 96-well plates at a concentration of 50 000 cells/well. The compounds were tested at the maximum soluble concentration given in Table 2 (in the range 30-300 μM) and incubated for 1 hour. The cells were then stimulated with LPS (100 ng/ml) for 20 hours.
The amount of MCP-1 produced was measured in the supernatants, suitably diluted with buffer, by means of an immunoenzymatic test (ELISA) using a commercial kit (ELISA MCP-1/JE, R&D Systems).
In general terms: An ELISA detects its analyte on a solid surface through an enzyme-linked reagent.

Data set [3] relates to CX3CR1 expression by LPS-stimulated MonoMac6 cells. In words: Analysis of the gene expression of CX3CR1 in a human monocyte line (real-time RT-PCR). Type of data set: cell-based. The settings on record: 1 h pre-incubation, LPS 100 ng/ml 20 h, read-out: % inhibition of CX3CR1 expression (mRNA); for inhibition at 300 µM: MONO-MAC-6, compound 300 μM (maximum soluble concentration); for inhibition at 150 µM: MONO-MAC-6, compound 150 μM (maximum soluble concentration). As to the method: The capacity of the compounds to inhibit the expression of CX3CR1 by lipopolysaccharide (LPS)-stimulated MonoMac6 cells was evaluated. The cells were placed in 96-well plates at a concentration of 50 000 cells/well. […] The cells were then stimulated with LPS (100 ng/ml) for 20 hours.
as §1, with “For the amplification, a set of primers and probe specific for human MCP-1 was used (Applied Biosystems, RefSeq NM_002982.3).” left out

Data set [4] has as its system p40 expression by LPS-stimulated MonoMac6 cells. In words: Analysis of the gene expression of p40 in a human monocyte line (real-time RT-PCR). Type of data set: cell-based. Conditions: 1 h pre-incubation, LPS 100 ng/ml 4 h, read-out: % inhibition of p40 expression (mRNA); for inhibition at 300 µM: MONO-MAC-6, compound 300 μM (maximum soluble concentration). As to the method:
The capacity of the compounds to inhibit the expression of p40 by lipopolysaccharide (LPS)-stimulated MonoMac6 cells was evaluated. The cells were placed in 96-well plates at a concentration of 50 000 cells/well. The compounds were tested at the maximum soluble concentration given in Table 4 (in the range 30-300 μM) and incubated for 1 hour. The cells were then stimulated with LPS (100 ng/ml) for 4 hours.
as §1, with “For the amplification, a set of primers and probe specific for human MCP-1 was used (Applied Biosystems, RefSeq NM_002982.3).” left out

Where [5] appears, read: compound 300 μM (maximum soluble concentration).
The mark [6] stands for this setting: MONO-MAC-6, compound 30 μM (maximum soluble concentration).
The mark [7] stands for this setting: compound 150 μM (maximum soluble concentration).

With `CC(C)(OCc1nn(Cc2ccccc2)c2ccc(Br)cc12)C(=O)O` [Compound 23, 2-[(1-benzyl-5-bromo-1H-indazol-3-yl)methoxy]-2-methylpropanoic acid], the melting point was 168 to 170 °C.
`CC(C)(OCCOCc1nn(Cc2ccccc2)c2ccccc12)C(=O)O` [Compound 20, 2-{2-[(1-benzyl-1H-indazol-3-yl)methoxy]ethoxy}-2-methylpropanoic acid] registered a melting point of 94 to 95 °C. The “% inhibition of MCP-1 expression (mRNA)” value in data set [1] (setting [5]) was 29%. The same compound came in with an inhibition at 300 µM in data set [2] of 73%. In data set [3], the inhibition at 300 µM turned out to be 89%. Moreover, the inhibition at 300 µM in data set [4] was 58%.
For `CC(C)(OCc1nn(Cc2ccc(Cl)c(Cl)c2)c2ccccc12)C(=O)O` [Compound 7, 2-{[1-(3,4-dichlorobenzyl)-1H-indazol-3-yl]methoxy}-2-methylpropanoic acid], the inhibition at 30 µM in data set [2] was 29%; in data set [3] (setting [6]), 85%; in data set [4] (setting [6]) it was 47%.
Turning to `O=C(O)COCc1nn(Cc2ccc(F)cc2)c2ccccc12` [Compound 17, {[1-(4-fluorobenzyl)-1H-indazol-3-yl]methoxy}acetic acid], the “% inhibition of MCP-1 expression (mRNA)” value in data set [1] (setting [5]) was 26%. Further, the inhibition at 300 µM in data set [2] turned out to be 39%; in data set [3], 90%; in data set [4], 61%.
The compound `CC(C)(OCc1nn(C2CCCc3ccccc32)c2ccccc12)C(=O)O` (centres unmarked) [Compound 8, 2-methyl-2-{[1-(1,2,3,4-tetrahydronaphth-1-yl)-1H-indazol-3-yl]methoxy}-propanoic acid] registered an inhibition at 150 µM in data set [2] of 77%.
As to `CC(C)(OCc1nn(Cc2ccccc2)c2ccc([N+](=O)[O-])cc12)C(=O)O` [Compound 6, 2-[(1-benzyl-5-nitro-1H-indazol-3-yl)methoxy]-2-methylpropanoic acid], the “% inhibition of MCP-1 expression (mRNA)” value in data set [1] (setting [7]) was 95%. The inhibition at 150 µM in data set [2] was 100%; in data set [3] it was 98%.
`CC(C)(OCc1nn(Cc2ccccc2)c2ccc(Cl)cc12)C(=O)O` [Compound 5, 2-[(1-benzyl-5-chloro-1H-indazol-3-yl)methoxy]-2-methylpropanoic acid] displayed a melting point of 145 to 147 °C. The inhibition at 150 µM in data set [2] stood at 82%.
For the compound `O=C(O)COCc1nn(Cc2ccc(Cl)cc2Cl)c2ccccc12` [Compound 18, {[1-(2,4-dichlorobenzyl)-1H-indazol-3-yl]methoxy}acetic acid], in data set [2], the inhibition at 30 µM was 35%.
As for `COc1ccc(Cn2nc(COC(C)(C)C(=O)O)c3ccccc32)cc1` [Compound 1, 2-{[1-(4-methoxybenzyl)-1H-indazol-3-yl]methoxy}-2-methylpropanoic acid], the melting point was 169 to 171 °C. Besides, in data set [1] (setting [5]), the “% inhibition of MCP-1 expression (mRNA)” value is 57%. The same compound displayed an inhibition at 300 µM in data set [2] of 80%. The inhibition at 300 µM in data set [3] was 97%. In addition, the inhibition at 300 µM in data set [4] was 50%.
As for `CC(C)(OCc1nn(C(=O)c2ccccc2)c2ccccc12)C(=O)O` [Compound 3, 2-[(1-benzoyl-1H-indazol-3-yl)methoxy]-2-methylpropanoic acid], in data set [1] (setting [5]), the “% inhibition of MCP-1 expression (mRNA)” value is 65%. Moreover, the inhibition at 300 µM came to 83% in data set [2], 99% in data set [3] and 64% in data set [4].
For `CC(C)(OCCCOCc1nn(Cc2ccccc2)c2ccccc12)C(=O)O` [Compound 21, 2-{3-[(1-benzyl-1H-indazol-3-yl)methoxy]propoxy}-2-methylpropanoic acid] the same measures were 61%, 88%, 97% and 50%.
Consider `O=C(O)COCCOCc1nn(Cc2ccccc2)c2ccccc12` [Compound 19, {2-[(1-benzyl-1H-indazol-3-yl)methoxy]ethoxy}acetic acid], for which the inhibition at 300 µM in data set [2] came out at 63%.
As to `CC(C)(OCc1nn(Cc2ccc(Cl)cc2)c2ccccc12)C(=O)O` [Compound 4, 2-{[1-(4-chlorobenzyl)-1H-indazol-3-yl]methoxy}-2-methylpropanoic acid], the “% inhibition of MCP-1 expression (mRNA)” value in data set [1] (setting [7]) amounted to 26%. The inhibition at 150 µM in data set [2] was 54%; in data set [3] it was 87%; in data set [4] (MONO-MAC-6, compound 150 μM (maximum soluble concentration)), 48%.
The compound `COc1ccc2c(c1)c(COC(C)(C)C(=O)O)nn2Cc1ccccc1` [Compound 2, 2-[(1-benzyl-5-methoxy-1H-indazol-3-yl)methoxy]-2-methylpropanoic acid] yielded a melting point of 128 to 130 °C. In data set [2], this compound had an inhibition at 300 µM of 66%.
In turn, `Cc1ccc(Cn2nc(COC(C)(C)C(=O)O)c3ccccc32)cc1` [Compound 22, 2-{[1-(4-methylbenzyl)-1H-indazol-3-yl]methoxy}-2-methylpropanoic acid] yielded an inhibition at 150 µM in data set [2] of 37%.
